Measurements reported in US4857508A, “Novel platelet-aggregation inhibitor peptide derivatives” (Monsanto Company, priority 1987, dated 1989).
pIC50: −log10 of the molar value. Where two headings read alike, the source gives them in different places. Non-standard residues stand in square brackets, D forms with d. Residues, ends and D or L forms follow the SMILES beside them.

Legend:
[1] = target: washed human platelets (Homo sapiens, UniProt P05106+P08514); assay: Inhibition of thrombin-induced platelet aggregation in washed human platelets; format: cell-based; details: for inhibition at 100 µM: peptide 10^-4 M; for pIC50: linear regression of dose response curve
Sequence of washed human platelets (P08514 32-1039): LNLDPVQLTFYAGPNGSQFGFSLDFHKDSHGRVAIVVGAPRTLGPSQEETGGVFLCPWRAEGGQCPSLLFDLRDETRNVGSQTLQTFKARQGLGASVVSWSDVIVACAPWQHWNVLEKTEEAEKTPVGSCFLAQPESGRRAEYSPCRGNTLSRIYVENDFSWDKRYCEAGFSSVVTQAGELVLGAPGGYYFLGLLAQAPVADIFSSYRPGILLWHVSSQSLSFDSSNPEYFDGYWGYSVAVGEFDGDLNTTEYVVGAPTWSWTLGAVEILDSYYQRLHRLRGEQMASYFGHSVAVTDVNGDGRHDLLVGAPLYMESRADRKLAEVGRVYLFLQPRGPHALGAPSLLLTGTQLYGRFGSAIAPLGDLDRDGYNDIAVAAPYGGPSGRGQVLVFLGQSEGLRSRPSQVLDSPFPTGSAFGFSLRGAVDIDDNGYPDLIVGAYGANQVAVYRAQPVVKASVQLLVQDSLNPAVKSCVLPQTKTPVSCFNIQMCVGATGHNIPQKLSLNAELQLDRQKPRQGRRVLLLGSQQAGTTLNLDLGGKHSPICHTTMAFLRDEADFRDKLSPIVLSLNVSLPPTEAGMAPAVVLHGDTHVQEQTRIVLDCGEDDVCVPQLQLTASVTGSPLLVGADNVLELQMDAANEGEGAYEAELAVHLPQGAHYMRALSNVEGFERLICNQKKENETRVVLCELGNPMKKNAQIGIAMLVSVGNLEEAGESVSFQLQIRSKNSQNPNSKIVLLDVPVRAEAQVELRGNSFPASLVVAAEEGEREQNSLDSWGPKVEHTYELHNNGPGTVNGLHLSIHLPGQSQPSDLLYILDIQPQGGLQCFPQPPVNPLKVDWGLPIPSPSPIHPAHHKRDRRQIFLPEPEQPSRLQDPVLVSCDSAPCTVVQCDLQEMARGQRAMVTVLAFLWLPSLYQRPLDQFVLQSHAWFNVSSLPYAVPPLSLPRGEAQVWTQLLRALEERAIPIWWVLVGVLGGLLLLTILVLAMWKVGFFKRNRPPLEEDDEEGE
Sequence of washed human platelets (P05106 27-788): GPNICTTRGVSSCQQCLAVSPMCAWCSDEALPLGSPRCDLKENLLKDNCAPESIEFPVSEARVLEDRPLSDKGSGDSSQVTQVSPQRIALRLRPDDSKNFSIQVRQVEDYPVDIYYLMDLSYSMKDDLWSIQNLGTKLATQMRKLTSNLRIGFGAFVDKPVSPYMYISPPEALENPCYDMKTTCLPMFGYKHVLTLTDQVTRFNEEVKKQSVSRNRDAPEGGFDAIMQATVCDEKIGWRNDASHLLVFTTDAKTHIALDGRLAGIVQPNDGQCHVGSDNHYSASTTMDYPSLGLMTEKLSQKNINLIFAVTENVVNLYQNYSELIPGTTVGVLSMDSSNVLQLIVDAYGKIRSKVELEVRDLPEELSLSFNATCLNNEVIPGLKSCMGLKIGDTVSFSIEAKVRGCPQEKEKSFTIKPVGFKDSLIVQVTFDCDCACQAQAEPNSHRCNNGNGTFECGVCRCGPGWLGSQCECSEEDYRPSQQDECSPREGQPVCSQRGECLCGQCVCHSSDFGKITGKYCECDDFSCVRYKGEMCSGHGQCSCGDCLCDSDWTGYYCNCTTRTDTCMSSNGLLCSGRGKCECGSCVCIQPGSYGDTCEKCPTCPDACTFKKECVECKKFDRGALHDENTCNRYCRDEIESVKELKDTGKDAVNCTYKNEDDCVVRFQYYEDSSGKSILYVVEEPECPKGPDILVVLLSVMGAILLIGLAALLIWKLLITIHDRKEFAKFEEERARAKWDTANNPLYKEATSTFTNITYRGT
Description: In one assay, the peptides are tested for their inhibition of thrombin-induced platelet aggregation in washed human platelets. The % inhibition is determined for the test peptide by comparing the extent of platelet aggregation in the presence and absence of the peptide.
Platelet Preparation: 60 ml of whole blood is freshley drawn and anticoagulated with 1/10th volume of CCD (100 mM Na Citrate and 136 mM glucose, pH 6.5 with HCl) at room temperature (RT). The blood is divided into 2 disposable 60 ml plastic centrifuge tubes and centrifuged for 3 minutes at 1000×g, allowing the centrifuge to coast to a stop (no brake). The platelet rich plasma (PRP) is withdrawn, being careful that no white cells are taken and is placed in a 60 ml centrifuge tube. The tube is immediately placed on ice for 15 minutes. After the 15 minutes at 0° C., 1/2 volume of ice cold CCD is added (i.e. 15 ml CCD/30 ml of PRP). The tube is mixed and the contents are divided equally into two centrifuge tubes. These are then centrifuged at 0° C. for 10 minutes at 900×g (no brake). The supernatant is carefully poured off. The platelet pellet is gently resuspended in 1/2 the original volume of PRP in a 0° C. modified Tangen-Hepes-BSA buffer, pH 7.4, consisting of 145 mM NaCl, 5 mM KCl, 0.05 mM CaCl2, 0.1 mM MgCl2, 11 mM glucose, 15 mM Hepes (N-2-hydroxyethylpiperazine-N'-2-ethanesulfonic acid), 1 mg/ml bovine serum albumin, (pH adjusted with NaOH). The resuspended pellets are combined into 1 centrifuge tube and incubated undisturbed at 37° C. for 30 minutes. After the incubation, the platelet suspension is removed and an aliquot is quickly counted in a hemocytometer or a Coulter® Counter (Coulter Electronics, Hialeah, Fla.). The platelet count is adjusted to 3×10^8 cells/ml with the Tangen-Hepes-BSA buffer.
Compound Testing: Aggregation studies are accomplished using a Payton aggregometer (Payton Scientific, Inc., Buffalo, N.Y.). […] All compounds are diluted to a working concentration of 10^-3 M with double distilled water. The reaction mixture consisted of 400 μl of 3×10^8 /ml washed platelets, 50 μl of buffer (control) or test compound at 10^-3 M with a final concentration of 10^-4 M. Platelets, test compound or buffer are placed in cuvettes in the aggregometer for a 1 minute preincubation before adding thrombin. 50 μl of 0.5 U/ml thrombin is added to cuvettes and the aggregation is monitored for 1 minute, which is the time for maximal aggregation of the platelets. All compounds are run in duplicate. The entire test is run within 3 hours, since this is the maximal viability of the platlets.

[2] = target: human platelets in platelet-rich plasma (Homo sapiens, UniProt P05106+P08514); assay: In-vitro human platelet aggregation in platelet-rich plasma (PRP), ADP-induced; format: cell-based; details: for pIC50: linear regression of dose response curve
Sequence of human platelets in platelet-rich plasma (P08514 32-1039): as the sequence (P08514 32-1039) above
Sequence of human platelets in platelet-rich plasma (P05106 27-788): as the sequence (P05106 27-788) above
Description: In another assay, platelet aggregation is examined in platelet-rich plasma which also is rich in fibrinogen and other plasma proteins.
The syringe is rotated carefully as blood is being drawn to mix the citrate. Platelet-rich plasma (PRP) is prepared by centrifugation at 100×g for 10 minutes at room temperature, allowing the centrifuge to coast to a stop without braking. The PRP is removed from the blood with a plastic pipette and placed in a plastic, capped, 50 ml Corning conical sterile centrifuge tube. The tube is capped and placed at room temperature. Platelet poor plasma (PPP) is prepared by centrifuging the remaining blood at 2000×g for 15 minutes at room temperature allowing the centrifuge to coast to a stop without braking. The PRP is adjusted with PPP to a count of 2-3×10^8 platelets per ml. 400 μl of the PRP preparation and 50 μl of the compound to be tested or saline were preincubated for 1 minute at 37° C. in a Payton aggregometer (Payton Scientific, Inc., Buffalo, NY). 50 μl of adenosine 5'diphosphate (ADP) (50 μM) is added to the cuvettes and the aggregation is monitored for 1 minute. All compounds are tested in duplicate. The entire procedure is run within 3 hours, since this is the maximal viability of the platelets. The saline instead of compound is used to determine the maximal aggregation.

[3] = test system: collagen induced thrombocytopenia (platelet aggregation); assay: In vivo rat thrombocytopenia (collagen induced); details: for inhibition in the in vivo thrombocytopenia assay: dose not printed there; for % Inhibition at 1 mg/kg: collagen 60 μg/kg
Description: In yet another test, the effect of the peptide on collagen induced thrombocytopenia (platelet aggregation) is measured in vivo in the art. Again, the % inhibition is determined for the test peptide and compared against a saline or ethanol vehicle in the absence of peptide.
Male rats (Charles River, CRL:CD(SD), 400-450 g) were used. The rats were anesthetized with Na pentabarbital (65 mg/kg, Vet Labs, Limited, Inc., Lenexa, KA). Two incisions were made to expose both jugular veins. Using an infusion pump (Harvard Apparatus, South Natick, Mass.) and a 5 cc syringe with a 19 g. butterfly, the test compound or vehicle was infused into the left jugular vein at a rate of 0.39 ml/min for 3 min. After 2 min of compound/vehicle infusion, collagen (60 μg/kg) (Helena Laboratories,Beaumont, TX) was injected with a 1 ml syringe into the right jugular vein. The body cavity was opened and the vena cava was exposed for blood sampling. One min after the collagen injection, compound infusion was stopped and blood was sampled from the vena cava (within 30 sec) with a 3 cc syringe containing […] of 4.5% EDTA/Tris (0.1M) (pH 7.35) plus 150 μM indomethacin. Platelet rich plasma (PRP) was prepared by centrifuging the blood at 126× g for 10 min. Five μl of PRP was counted in 20 ml of Isoton® III in a Coulter Counter. Percent inhibition of collagen induced aggregation was calculated by comparison of the number of platelets counted in treated animals with numbers for animals receiving no collagen and with counts from animals receiving vehicle and collagen. Estimation of potency was based on inhibition of collagen-induced thrombocytopenia.
Four animals were tested with each compound to give the data shown.

Compound: CCOc1ccc(C[C@H](NC(=O)[C@H](CC(=O)O)NC(=O)CNC(=O)[C@@H](N)CCCNC(=N)N)C(N)=O)cc1 [RGD(O--ethyl-Tyr)--NH2, Arg-Gly-Asp-(O-ethyltyrosine)-amide] (H-RGDY(Et)-NH2)
- inhibition at 100 µM [1]: 54%

Compound: N=C(N)NCCC[C@H](N)C(=O)NCC(=O)N[C@@H](CC(=O)O)C(=O)N[C@@H](Cc1ccccc1)C(N)=O [RGDF--NH2, reference compound] (H-RGDF-NH2)
- inhibition at 100 µM [1]: 77%
- inhibition at 100 µM ([2]; peptide 10^-4 M): 100%

Compound: N=C(N)NCCC[C@H](NC(=O)CN)C(=O)NCC(=O)N[C@@H](CC(=O)O)C(=O)N[C@@H](CO)C(=O)N1CCC[C@H]1C(N)=O [GRGDSP--NH2, reference compound]
- inhibition at 100 µM [1]: 55%
- inhibition at 100 µM ([2]; peptide 10^-4 M): 23%

Compound: COc1ccc(C[C@H](NC(=O)[C@H](CC(=O)O)NC(=O)CNC(=O)[C@@H](N)CCCNC(=N)N)C(N)=O)cc1 [RGD(O--methyl-Tyr)--NH2, Arg-Gly-Asp-(O-methyltyrosine)-amide] (H-RGDY(Me)-NH2)
- pIC50 [1]: 4.70
- inhibition at 100 µM [1]: 79%
- pIC50 ([2]; read-out: IC50): 4.52
- inhibition at 100 µM ([2]; peptide 10^-4 M): 100%

Compound: CC(=O)N[C@@H](CCCNC(=N)N)C(=O)NCC(=O)N[C@@H](CC(=O)O)C(=O)N[C@@H](Cc1ccc(O)cc1)C(N)=O [Ac--RGDY--NH2] (Ac-RGDY-NH2)
- inhibition at 100 µM [1]: 68%
- inhibition at 100 µM ([2]; peptide 10^-4 M): 48%
- inhibition in the in vivo thrombocytopenia assay [3]: 85%
- % Inhibition at 1 mg/kg ([3]; rat, i.v. infusion): 85%

Compound: COc1ccc(C[C@H](NC(=O)[C@H](CC(=O)O)NC(=O)CNC(=O)[C@H](CCCNC(=N)N)NC(C)=O)C(N)=O)cc1 [Ac--RGD(O--methyl-Tyr)--NH2, acetyl-Arg-Gly-Asp-(O-methyltyrosine)-amide] (Ac-RGDY(Me)-NH2)
- pIC50 [1]: 4.70
- inhibition at 100 µM [1]: 78%
- pIC50 ([2]; read-out: IC50): 4.70
- inhibition at 100 µM ([2]; peptide 10^-4 M): 100%
- % Inhibition at 1 mg/kg ([3]; rat, i.v. infusion): 86%

Compound: CC(=O)N[C@@H](CCCN=C(N)N)C(=O)NCC(=O)N[C@@H](CC(=O)O)C(=O)N[C@@H](Cc1ccc(O)cc1)C(N)=O [Ac--RGDY--NH2] (Ac-RGDY-NH2)
- pIC50 [1]: 4.30

Compound: N=C(N)NCCC[C@H](N)C(=O)NCC(=O)N[C@@H](CC(=O)O)C(=O)N[C@@H](CO)C(=O)O [RGDS, Arg-Gly-Asp-Ser, reference compound]
- inhibition at 100 µM [1]: 71%
- inhibition at 100 µM ([2]; peptide 10^-4 M): 25%

Compound: COc1ccc(C[C@H](NC(=O)[C@H](CC(=O)O)NC(=O)CNC(=O)[C@@H](CCCNC(=N)N)NC(C)=O)C(N)=O)cc1 [Ac--(D-Arg)GD(O--methyl-Tyr)--NH2, acetyl-(D-Arg)-Gly-Asp-(O-methyltyrosine)-amide] (Ac-[dR]GDY(Me)-NH2)
- inhibition at 100 µM ([2]; peptide 10^-4 M): 71%

Compound: COc1cc(C)c(CC(NC(=O)[C@H](CC(=O)O)NC(=O)CNC(=O)[C@@H](N)CCCNC(=N)N)C(N)=O)c(C)c1 (stereo partly drawn) [RGD(2,6-dimethyl-O--methyl-Tyr)--NH2, Arg-Gly-Asp-(2,6-dimethyl-O-methyltyrosine)amide]
- pIC50 [1]: 4.70
- inhibition at 100 µM [1]: 78%
- pIC50 [2]: 4.05
- inhibition at 100 µM ([2]; peptide 10^-4 M): 53%

Compound: COc1ccc(C[C@H](NC(=O)[C@H](CC(=O)O)NC(=O)CNC(=O)CCCCNC(=N)N)C(N)=O)cc1 [des-NH2 --RGD(O--methyl-Tyr)--NH2, des-amino-Arg-Gly-Asp-(O-methyltyrosine)-amide]
- pIC50 [1]: 5.00
- inhibition at 100 µM [1]: 90%
- pIC50 ([2]; read-out: IC50): 4.70
- inhibition at 100 µM ([2]; peptide 10^-4 M): 100%

Compound: COc1ccc(C[C@H](NC(=O)[C@H](CC(=O)O)NC(=O)CNC(=O)CCCCCNC(=N)N)C(N)=O)cc1 [des-amino-(homoarginine)-Gly-Asp-(O-methyltyrosine)-amide]
- pIC50 [1]: 5.00
- inhibition at 100 µM [1]: 82%
- pIC50 ([2]; read-out: IC50): 4.70
- inhibition at 100 µM ([2]; peptide 10^-4 M): 100%

Compound: NC(=O)[C@H](Cc1ccccc1)NC(=O)[C@H](CC(=O)O)NC(=O)CNC(=O)[C@@H](N)CCCN=C(N)N [RGDF--NH2, reference compound] (H-RGDF-NH2)
- pIC50 [1]: 5.00
- pIC50 ([2]; read-out: IC50): 4.70

Compound: COc1ccc(CC(NC(=O)[C@H](CC(=O)O)NC(=O)CNC(=O)[C@@H](N)CCCNC(=N)N)C(N)=O)c2ccccc12 (stereo partly drawn) [RGD(4-methoxy-1-naphthyl-Ala)--NH2, Arg-Gly-Asp-(4-methoxy-1-naphthylalanine)-amide]
- pIC50 ([2]; read-out: IC50): 5.00
- inhibition at 100 µM ([2]; peptide 10^-4 M): 100%

Compound: N=C(N)NCCC[C@H](N)C(=O)NCC(=O)N[C@@H](CC(=O)O)C(=O)N[C@@H](Cc1ccc(O)cc1)C(N)=O [RGDY--NH2, reference compound] (H-RGDY-NH2)
- inhibition at 100 µM [1]: 45%
- inhibition in the in vivo thrombocytopenia assay [3]: 19%
- % Inhibition at 1 mg/kg ([3]; rat, i.v. infusion): 19 ± 12%
- Maximum Inhibition % ([3]; rat, i.v. infusion, collagen induced thrombocytopenia): 20%

Compound: Arg-Gly-Asp-(p-phenyl-phenylalanine)-amide [RGD(p-phenyl-Phe)--NH2]
- % Inhibition at 10^-4 M ([2]; peptide 10^-4 M): 100%
